Test results as given in patent publication US20080031903A1, “METHOD OF TREATING OCULAR INFECTIONS” (priority 2006, published 2008).
Several values for one entry are separate records, joined by “and”; a condition that tells them apart may be missing. Equal values may be shown once. Entries after “also recorded” stand apart in the source; their conditions may differ.

Assays:
Assay type in all cases: in vivo
[1] = tested on: Ad5; experiment: Ad5/NZW rabbit ocular model, combined analysis of Examples 3 and 5
From the text: The following summarizes the in vivo studies provided in Examples 3 and 5. Data from the two studies were combined, analyzed by Minitab statistical software using Analysis of Variance (ANOVA), and X^2 analyses. Significance was established at the p<0.05 confidence.
The daily reduction in percent Ad5 positive cultures per total for all treatment groups is presented graphically in FIG. 4.
The mean combined Ad5 ocular titers represent a global measure of adenovirus replication during the early and late phases of infection. These were determined by calculating the mean and standard deviation of all ocular cultures from each treatment group during the early and late phases (n=80 for all groups).
The mean duration of shedding was estimated by determining the last day on which adenovirus positive cultures were obtained and calculating the mean and standard deviation.

[2] = tested on: Ad5; experiment: Ad5/NZW rabbit ocular model, Example 5 (IG-Ad-R3)
Method: Additional experiments were conducted substantially as described in Example 3, in order to determine the antiviral efficacy of a 100 mg/ml solution of IG (intravenous Immune Globulin) in the Ad5/NZW rabbit ocular model.

[3] = tested on: Ad5; experiment: Ad5/NZW rabbit ocular model, combined analysis of Examples 3 and 5; conditions: n=20 eyes per group, FIG. 12
[4] = Days 1-5, Early Phase of Infection
[5] = Days 7-14, Late Phase of Infection

## Nc1ccn(C[C@@H](CO)OCP(=O)(O)O)c(=O)n1 [0.5% Cidofovir, Cidofovir]
[1]; Days 1-5
  Adenoviral Positive Culture/total, Early Phase: 72/80
  Adenoviral Positive Culture/total, Early Phase, percent: 90.0%
[1]; Days 1-5, n = 80
  Mean Combined Ad5 titer, Early Phase, Mean ± Sd: 1.4 ± 2.1 × 10^3 pfu/ml
[1]; Days 1-14
  Adenoviral Positive Culture/total, Overall: 78/160
  Adenoviral Positive Culture/total, Overall, percent: 48.75%
[1]; Days 7-14
  Adenoviral Positive Culture/total, Late Phase: 6/80
  Adenoviral Positive Culture/total, Late Phase, percent: 7.5%
[1]; Days 7-14, n = 80
  Mean Combined Ad5 titer, Late Phase, Mean ± Sd: 0.8 ± 0.4 × 10^0 pfu/ml
[1]; n = 20
  Duration of Ad5 Shedding, Mean ± Sd: 5.3 ± 1.3 days
[1]; rabbit, in vivo
  Antiviral activity, overall comparison: equivalent antiviral inhibitory activity
  Duration of shedding, comparison: significantly decreased the duration of shedding compared with the saline control; also recorded: significantly decreased the Mean Duration of shedding compared with IG
[2]; D 0, before treatment
  Ad5 ocular viral titer, individual eye: 1050 pfu/ml and 50 pfu/ml and 1350 pfu/ml and 1200 pfu/ml and 30 pfu/ml and 6300 pfu/ml and 20 pfu/ml and 600 pfu/ml and 750 pfu/ml and 140 pfu/ml
[2]; D 1
  Ad5 ocular viral titer, individual eye: 35 pfu/ml and 10 pfu/ml and 550 pfu/ml and 5 pfu/ml and 500 pfu/ml and 60 pfu/ml and 200 pfu/ml and 700 pfu/ml (2×) and 400 pfu/ml
[2]; D 3
  Ad5 ocular viral titer, individual eye: 1500 pfu/ml and 5 pfu/ml and 2900 pfu/ml (2×) and 105 pfu/ml and 2600 pfu/ml and 1350 pfu/ml and 1600 pfu/ml and 4500 pfu/ml and 3500 pfu/ml
[2]; D 4
  Ad5 ocular viral titer, individual eye: 0 pfu/ml (2×) and 5 pfu/ml and 750 pfu/ml and 1100 pfu/ml and 400 pfu/ml and 1150 pfu/ml and 7100 pfu/ml and 2000 pfu/ml and 1900 pfu/ml
[2]; D 5
  Ad5 ocular viral titer, individual eye: 15 pfu/ml and 0 pfu/ml (2×) and 750 pfu/ml and 5 pfu/ml and 1400 pfu/ml and 700 pfu/ml and 600 pfu/ml and 850 pfu/ml and 950 pfu/ml
[2]; D 7
  Ad5 ocular viral titer, individual eye: 0 pfu/ml (6×) and 25 pfu/ml and 5 pfu/ml (2×) and 10 pfu/ml
[2]; D 9
  Ad5 ocular viral titer, individual eye: 0 pfu/ml
[2]; D 11
  Ad5 ocular viral titer, individual eye: 0 pfu/ml
[2]; D 14
  Ad5 ocular viral titer, individual eye: 0 pfu/ml
[2]; Day 0, before treatment
  Positive Cultures per Total: 10/10
  Positive Cultures per Total, percent: 100%
[2]; Day 1
  Positive Cultures per Total: 10/10
  Positive Cultures per Total, percent: 100%
[2]; Day 3
  Positive Cultures per Total: 10/10
  Positive Cultures per Total, percent: 100%
[2]; Day 4
  Positive Cultures per Total: 8/10
  Positive Cultures per Total, percent: 80%
[2]; Day 5
  Positive Cultures per Total: 8/10
  Positive Cultures per Total, percent: 80%
[2]; Day 7
  Positive Cultures per Total: 4/10
  Positive Cultures per Total, percent: 40% and 80%
[2]; Day 9
  Positive Cultures per Total: 0/10
  Positive Cultures per Total, percent: 0%
[2]; Day 11
  Positive Cultures per Total: 0/10
  Positive Cultures per Total, percent: 0%
[2]; Day 14
  Positive Cultures per Total: 0/10
  Positive Cultures per Total, percent: 0%
[2]; [4]
  Positive Cultures per Total, Total: 36/40
  Positive Cultures per Total, Total (%): 90%
[2]; Days 1-14
  Positive Cultures per Total, Total: 40/80
  Positive Cultures per Total, Total (%): 50%
[2]; [5]
  Positive Cultures per Total, Total: 4/40
  Positive Cultures per Total, Total (%): 10%
[2]; Early Phase
  Mean Combined Ocular Titers Days 1-5, comparison: significantly lower Mean Combined Ocular Titers Days 1-5 compared with the saline Control
[2]; Late Phase
  Mean Combined Ocular Titers Days 7-14, comparison: significantly lower Mean Combined Ocular Titers Days 7-14 compared with the saline Control
  Positive Cultures per Total Days 7-14, comparison: significantly fewer Positive Cultures per Total Days 7-14 compared with 10% IG and the saline Control
[2]; days as stated
  Mean Daily Ocular Titers, comparison: significantly lower titer on Day 7 compared the saline Control
[2]; rabbit, in vivo
  Antiviral efficacy, conclusion: demonstrated its proven antiviral efficacy
  Mean Duration of Shedding, comparison: significantly shorter mean durations of shedding compared with the saline Control; also recorded: significantly shorter mean duration of shedding compared with 10% IG
  Positive Cultures per Total Days 1-14, comparison: significantly fewer Positive Cultures per Total Days 1-14 compared with the saline Control
[3]
  Daily Ad5 positive cultures per total, comparison (words): significantly fewer Ad5 positive cultures per total compared with the Saline control on Days 7 and 9
[3]; listed as cidofovir
  Daily Ad5 positive cultures per total, comparison (words): significant decreases in the number of Ad5 positive cultures per total on Days 7 and 9 compared with the saline treated eyes
